Source: US12226401B2, “Molecular genetic approach to treatment and diagnosis of alcohol and drug dependence” (priority 2010, dated 2025)

System: alcohol dependent individuals
Experiment: Randomized, double-blind, placebo-controlled, 12-week clinical trial of ondansetron vs placebo in alcohol dependent individuals by genotype: drinks per drinking day (DDD)
Type: in vivo, human
Settings: for Least Squares Mean of Drinks per Drinking Days, Estimated Mean: Table 4B; for Least Squares Mean Difference, Drinks per Drinking Days, OND vs. Placebo: all patients (treatment main effect); for Log mean Drinks/Drinking Day: natural log
Method: Two hundred and seventy eight male and female alcohol dependent individuals were entered into a randomized, double-blind, placebo-controlled, 12-week clinical trial. These individuals were divided into TT vs. […] The polymorphisms in 3''-UTR region of a gene may affect mRNA expression levels by altering their stability. […] Data was transformed to its natural log to correct for skewness. […] In total, ten SNPs in 5HT3a and nine SNPs in 5HT3b genes were analyzed in this study: […]

With `Cc1nccn1CC1CCc2c(c3ccccc3n2C)C1=O` (stereo not drawn) [ondansetron, 9-methyl-3-[(2-methyl-1H-imidazol-1-yl)methyl]-1,2,3,9-tetrahydrocarbazol-4-one] the “Least Squares Mean, Drinks per Drinking Days” value (RS17614942 CC) was 6.03, the “Least Squares Mean, Drinks per Drinking Days” value (RS17614942 CC/AA) was 6.09 and the “Estimate, OND vs. Placebo, drinks per drinking days (DDD)” value (TT + AA (RS1042173, RS1176719)) was −7.12 DDD. For the same compound, the “Estimate, OND vs. Placebo, drinks per drinking days (DDD)” value (TT + AC (RS1042173, RS17614942)) was −3.37 DDD, the “Estimate, OND vs. Placebo, drinks per drinking days (DDD)” value (TT + AG (RS1042173, RS1150226)) was −2.00 DDD and the “Estimate, OND vs. Placebo, drinks per drinking days (DDD)” value (TT + AG + AC (RS1042173, RS1150226, RS17614942)) was −2.24 DDD. The “Estimate, OND vs. Placebo, drinks per drinking days (DDD)” value (TT + GG (RS1042173, RS1176713)) was −6.42 DDD, the “Estimate, OND vs. Placebo, drinks per drinking days (DDD)” value (TT or AA or AC (RS1042173, RS1176719, RS17614942)) was −1.08 DDD and the “Estimate, OND vs. Placebo, drinks per drinking days (DDD)” value (TT or AC (RS1042173, RS17614942)) was −1.07 DDD. The “Estimate, OND vs. Placebo, drinks per drinking days (DDD)” value (TT or AG (RS1042173, RS1150226)) was −1.02 DDD, the “Estimate, OND vs. Placebo, drinks per drinking days (DDD)” value (TT or AG or AC (RS1042173, RS1150226, RS17614942)) was −0.99 DDD and the “Estimate, OND vs. Placebo, drinks per drinking days (DDD)” value (TT or AG or GG (RS1042173, RS1150226, RS1176713)) was −1.12 DDD. The “Estimate, OND vs. Placebo, drinks per drinking days (DDD)” value (TT or GG (RS1042173, RS1176713)) was −1.02 DDD, the “Estimate, OND vs. Placebo, drinks per drinking days (DDD)” value (TT or GG or AC (RS1042173, RS1176713, RS17614942)) was −1.12 DDD and the “Least Squares Mean Difference, Estimated Mean Difference, AG vs. GG/AA” value (Table 3G, among OND-treated subjects, AG vs. GG/AA genotype) was −1.90. The “Least Squares Mean of Drinks per Drinking Days, Estimated Mean” value (Others (AA/GG and AA/CC), n = 112) was 6.12, the “Least Squares Mean of Drinks per Drinking Days, Estimated Mean” value (RS1150226 AG or RS17614942 AC carriers, n = 23) was 4.19 and the “Least Squares Mean of Drinks per Drinking Days, Estimated Mean” value (all OND subjects, RS1150226 (AG) or RS17614942 (AC) analysis) was 5.16. For the same compound, the “Least Squares Mean Difference between Treatment and Placebo, Estimated Mean Difference” value (Table 4C, OND vs. Placebo among AG or/and AC (RS1150226 AG, RS17614942 AC)) was −2.12, the “Least Squares Mean Difference between Treatment and Placebo, Estimated Mean Difference” value (Table 4C, OND vs. Placebo, all genotypes (main effect)) was −0.99 and the “Least Squares Mean Difference, Estimated Mean Difference, (AG or AC) vs. Others” value (Table 4C, among OND-treated subjects, (AG or AC) vs. Others) was −1.91. The “Least Squares Mean, Drinks per Drinking Days” value (all OND patients, model Comb (LL + TT or AC or AG) vs Others) was 5.32, the “Least Squares Mean, Drinks per Drinking Days” value (all OND patients, model RS1150226 (GG, AG/AA)) was 5.15 and the “Least Squares Mean, Drinks per Drinking Days” value (all OND patients, model RS1150226 (GG/AA, AG)) was 5.13. The “Least Squares Mean, Drinks per Drinking Days” value (all OND patients, model RS17614942 (CC, AC/AA)) was 4.96, the “Least Squares Mean, Drinks per Drinking Days” value (all OND patients, model RS17614942 (CC/AA, AC)) was 4.98 and the “DDD reductions with OND” value (all four variants (LL, TT, AG, AC)) was “more than 4 DDD”. For the same compound, the “Least Squares Mean Difference, Drinks per Drinking Days, OND vs. Placebo” value (model RS17614942 (CC, AC/AA)) was −1.20, the “Least Squares Mean Difference, Drinks per Drinking Days, OND vs. Placebo” value (model RS17614942 (CC/AA, AC)) was −1.30 and the “Drinks per Drinking Days, Least Squares Estimated Mean Difference” value (among AC/AA: OND vs. Placebo, model RS17614942) was −2.04. The “Drinks per Drinking Days, Least Squares Estimated Mean Difference” value (among AC/AA: OND vs. Placebo, model RS17614942 and 5-HTTLPR) was −2.13, the “Drinks per Drinking Days, Least Squares Estimated Mean Difference” value (among CT/TT: OND vs. Placebo, model RS4938056 and 5-HTTLPR) was −0.81 and the “Drinks per Drinking Days, Least Squares Estimated Mean Difference” value (among LL: OND vs. Placebo, model 5-HTTLPR and RS1062613) was −1.29. For the same compound, the “Drinks per Drinking Days, Least Squares Estimated Mean Difference” value (among LL: OND vs. Placebo, model 5-HTTLPR and RS1150226) was −1.47, the “Drinks per Drinking Days, Least Squares Estimated Mean Difference” value (among LL: OND vs. Placebo, model RS17614942 and 5-HTTLPR) was −1.86 and the “Drinks per Drinking Days, Least Squares Estimated Mean Difference” value (among OND: AC/AA vs. CC, model RS17614942) was −1.60. The “Drinks per Drinking Days, Least Squares Estimated Mean Difference” value (among OND: AC/AA vs. CC, model RS17614942 and 5-HTTLPR) was −1.45, the “Drinks per Drinking Days, Least Squares Estimated Mean Difference” value (among OND: AG/AA vs. GG, model 5-HTTLPR and RS1150226) was −1.25 and the “Drinks per Drinking Days, Least Squares Estimated Mean Difference” value (among OND: AG/AA vs. GG, model RS1150226) was −1.47. For the same compound, the “Drinks per Drinking Days, Least Squares Estimated Mean Difference” value (among OND: CT/TT vs. CC, model RS4938056) was −1.24, the “Drinks per Drinking Days, Least Squares Estimated Mean Difference” value (among OND: CT/TT vs. CC, model RS4938056 and 5-HTTLPR) was −1.13 and the “Drinks per Drinking Days, Least Squares Estimated Mean Difference” value (among OND: LL + CT/TT vs. Others, simplified model) was −1.64. For the same compound, the “Drinks per Drinking Days, Least Squares Estimated Mean Difference” value (among OND: LL vs. LS/SS, model 5-HTTLPR and RS1062613) was −1.39, the “Drinks per Drinking Days, Least Squares Estimated Mean Difference” value (among OND: LL vs. LS/SS, model 5-HTTLPR and RS1150226) was −1.27 and the “Drinks per Drinking Days, Least Squares Estimated Mean Difference” value (among OND: LL vs. LS/SS, model RS4938056 and 5-HTTLPR) was −1.37. For the same compound, the “Drinks per Drinking Days, Least Squares Estimated Mean Difference” value (among OND: LL vs. LS/SS, model RS17614942 and 5-HTTLPR) was −1.33, the “Drinks per Drinking Days, Least Squares Estimated Mean Difference” value (among OND: TC/CC vs. TT, model 5-HTTLPR and RS1062613) was −1.05 and the “Drinks per Drinking Days, Least Squares Estimated Mean Difference” value (among OND: TC/CC vs. TT, model RS1062613) was −1.06. The “Drinks per Drinking Days, Least Squares Estimated Mean Difference” value (among TC/CC: OND vs. Placebo, model 5-HTTLPR and RS1062613) was −1.10, the “Drinks per Drinking Days, Least Squares Estimated Mean Difference” value (among TC/CC: OND vs. Placebo, model RS1062613) was −0.90 and the “DDD reduction, OND compared to placebo” value (any one of three variants: 5-HTTLPR [LL], RS1150226 [AG], RS17614942 [AC]) was “at least 1.4 DDD”. For the same compound, the “DDD reduction, OND compared to placebo” value (any two of the three variants (LL, AG, AC)) was “at least 2.4 DDD”, the “DDD reductions with OND” value (any two of three variants: 5-HTTLPR (LL), RS1042173 (TT), RS1176713 (GG)) was “at least 2 DDD” and the “DDD reductions with OND” value (either 5-HTTLPR (LL) or RS1176713 (GG)) was “at least 1.4 DDD”. The “DDD reductions with OND” value (either one or two or three or four of the four variants (LL, TT, AG, AC)) was “at least 0.9 DDD”, the “DDD reductions with OND” value (either three of the four variants (LL, TT, AG, AC)) was “more than 2 DDD” and the “DDD reductions with OND” value (either two of four variants: 5-HTTLPR (LL), RS1042173 (TT), RS1150226 (AG), RS17614942 (AC)) was “at least 2 DDD”. The “DDD reductions, OND compared to placebo” value (one or two of the three variants (LL, AG, AC)) was “about 1.4 DDD”, the “Response to Ondansetron treatment” value (one or two or three of 5-HTTLPR [LL], RS1150226 [AG], RS17614942 [AC], 120 patients) was “seemed to respond” and the “DDD reductions, OND compared to placebo” value (one or two or three of the three variants (LL, AG, AC)) was “at least 1.4 DDD”. The “Response to OND treatment” value (one or two or three or four of 5-HTTLPR (LL), RS1042173 (TT), RS1176719 (AA), RS17614942 (AC)) was “likely to respond”, the “DDD reductions with OND” value (one, or two or three of the three variants (LL, TT, RS1176713 GG)) was “at least 0.9 DDD” and the “DDD reduction, OND compared with placebo groups” value (patients who had LL+TT or RS17614942 (AC) or RS1150226 (AG), 84 of 273 patients) was “at least 1.75 DDD”. The “Estimate, OND vs. Placebo, drinks per drinking days (DDD)” value (patients with 5-HTTLPR (LL)) was −1.41 DDD, the “DDD reductions, OND compared to placebo” value (patients with either 5-HTTLPR (LL) or RS1150226 (AG) or RS17614942 (AC)) was “at least 1.4 DDD” and the “Log mean Drinks/Drinking Day” value (printed 'TT/GG and group' (rs1042173)) was 1.68±0.07 Drinks/Drinking Day. For the same compound, the “Estimated mean DDD difference for OND vs. placebo” value (regardless of rs17614942 genotypes, 5HT3b cohort) was −1.15, the “Log mean difference in Drinks/Drinking Day, TTond vs TG/GG ond” value (rs1042173, among ondansetron recipients, 95% CI -0.53 to -0.13, p=0.002) was −0.33 and the “Reducing severe drinking vs placebo (Log Drinks/Drinking day, mixed model)” value (rs1042173 TT genotype, ondansetron 4 mcg/kg, p=0.028) was “more beneficial than placebo”. For the same compound, the “Log mean Drinks/Drinking Day” value (rs1042173 TT group that received ondansetron 4 mcg/kg) was 1.36±0.10 Drinks/Drinking Day, the “Reduction of DDD by ondansetron, C-carriers compared with TT subjects” value (rs1062613 (5HT3a)) was 1.17 sd and the “Reduction of DDD by ondansetron, AG/AA compared to GG subjects” value (rs1150226 (5HT3a)) was 1.74 sd. The “Reduction of DDD by ondansetron, T-carriers compared with CC subjects” value (rs4938056 (5HT3b)) was 1.30 sd, the “Reduction in DDD, AC/AA treated with ondansetron compared to CC subjects” value (rs17614942 (5HT3b)) was 1.97 sd and the “Least Squares Mean Difference, Drinks per Drinking Days, AG/AA vs. GG” value (second AG/AA vs. GG line printed under Among OND, RS1150226) was −0.98. The “DDD reduction, OND compared to placebo” value (the three variants (LL, AG, AC)) was “at least 4 DDD”, the “DDD reductions with OND” value (the three variants (LL, TT, RS1176713 GG)) was “at least 7 DDD” and the “Reduction of DDD by ondansetron compared to the placebo” value (within AC/AA group of rs17614942) was 2.41 sd. The “Reduction of DDD by ondansetron compared to the placebo” value (within AG/AA group of rs1150226) was 1.57 sd, the “Least square Mean difference in DDD, ondansetron vs placebo” value (within LL+AC/AA group (5HTTLPR + rs17614942)) was 3.6 sd and the “Least square Mean difference in DDD, ondansetron vs placebo” value (within LL+CT/TT group (5HTTLPR + rs4938056)) was 1.74 sd.
